Assay results as given in patent US20100168099A1, “1H-QUINOLIN-4-ONE COMPOUNDS, WITH AFFINITY FOR THE GABA RECEPTOR, PROCESSES, USES AND COMPOSITIONS” (FERRER INTERNACIONAL, S.A., priority 2006, published 2010).

What was measured:
[1] = system: spontaneous motor activity of male CD1 mice; assay: In vivo predictive sedation-hypnosis test (traveled distance); conditions: Mus musculus, ip, 0.5 h, 98 μmol/kg, single intraperitoneal dose, 30 minutes after dosing (first 5 min discarded), versus control
Method: b) In Vivo Determination of Predictive Sedative-Hypnotic Action
The in vivo effects of these compounds were assessed by a predictive sedation-hypnosis test in mice (D. J. Sanger et al., Eur. J. Pharmacol., 313, 35-42, 1996; and G. Griebel et al., Psychopharmacology, 146, 205-213, 1999).
Groups of 5-8 male CD1 mice, weighing 22-26 g at the time of test, were used. The test compounds were administered in single equimolecular intraperitoneal doses, suspended in 0.25% agar with one drop of Tween in a volume of 10 mL/kg. Control animals received the vehicle alone. Using a Smart System (Panlab, S. L., Spain) the traveled distance in cm was recorded for each mouse at 5 min intervals during a period of 30 minutes after dosing. The inhibition percentage traveled distance of treated animals versus control animals (the first 5 min were discarded) was calculated.

α2-GABAA receptor = assay: Ligand-binding assay, radiolabeled flumazenil competition, spinal cord membranes; design: species or system rat; conditions: for Affinity for the α2-subunit of the GABAA receptor, % inhibition: rat spinal cord membranes, radiolabeled flumazenil 1 nM
Method: (§1) a) Ligand-binding Assays. Determination of the Affinity of Test Compounds for α1- and α2-GABAA, Receptor
(§2) Male Sprague-Dawley rats weighing 200-250 g at the time of experiment were used. After decapitation of the animal, the cerebellum (tissue that mostly contains α1-GABAA receptor) and spinal cord (tissue that mostly contains α2-GABAA receptor) were removed. The membranes were prepared according to the method by J. Lameh et al. (Prog. Neuro-Psychopharmacol. Biol. Psychiatry, 24, 979-991, 2000) and H. Noguchi et al. (Eur J Pharm, 434, 21-28, 2002) with slight modifications. Once the tissues weighed, they were suspended in 50 mM Tris.HCl (pH 7.4), 1:40 (v/v), or sucrose 0.32 M in the case of spinal cord, homogenized and then centrifuged at 20,000 g for 10 min at 7° C. The resulting pellet was resuspended under the same conditions and centrifuged again. The pellet was finally resuspended on a minimum volume and kept at −80° C. overnight. On the next day, the process was repeated until the final pellet was resuspended at a ratio of 1:10 (v/v) in the case of cerebellum and at a ratio of 1:5 (v/v) in the case of spinal cord.
(§3) Affinity was determined by competitive tests using radiolabeled flumazenil as ligand. The tests were performed according to the methods described by S. Arbilla et al. (Eur. J. Pharmacol., 130, 257-263, 1986); and Y. Wu et al. (Eur. J. Pharmacol., 278, 125-132, 1995) using 96-well microtiter plates. The membranes containing the study receptors, flumazenil (radiolabeling at a final concentration of 1 nM) and ascending concentrations of test compounds (in a total volume of 230 μL in 50 mM [pH 7.4] Tris.HCl buffer) were incubated. Simultaneously, the membranes were only incubated with the radiolabeled flumazenil (total binding, 100%) and in the presence of an elevated concentration of unradiolabeled flumazenil (non-specific binding, % estimation of radiolabeled ligand). The reactions started on adding the radiolabeled ligand followed by incubation for 60 minutes at 4° C. At the end of the incubation period, 200 μL of reaction were transferred to a multiscreen plate (Millipore) and filtered using a vacuum manifold and then washed three times with cold test buffer. The multiscreen plates were equipped with a GF/B filter that retained the membranes containing the receptors and the radiolabeled ligand which had been bound to the receptors. After washing, the plates were left till dry. Once dried, scintillation liquid was added and left under stirring overnight. The next day the plates were counted using a Perkin-Elmer Microbeta scintillation counter.
(§4) For analysis of the results the percentage of specific binding for every concentration of test compound was calculated as follows:
(§5) % specific binding=(X−N/T−N)×100
(§6) where, X: amount of bound ligand for every concentration of compound. T: total binding, maximum amount bound to the radiolabeled ligand. N: non-specific binding, amount of radiolabeled ligand bound in a non-specific way irrespective of the receptor used.
(§7) Every concentrations of compound were tested in triplicate and their mean values were used to determine the experimental values of % specific binding versus the concentration of compound. Affinity data are expressed as % inhibition at 10^−5M and 10^−7M concentrations.

α1-GABAA receptor = assay: Ligand-binding assay, radiolabeled flumazenil competition, cerebellum membranes; design: species or system rat; conditions: rat cerebellum membranes, radiolabeled flumazenil 1 nM
Method: as §1, §2, §3, §4, §5, §6, §7

In the case of `C=CCN(CC=C)C(=O)Cn1cc(-c2ccccc2)c(=O)c2ccc(C)cc21` [Example 43, N,N-Diallyl-2-(7-methyl-4-oxo-3-phenyl-4H-quinolin-1-yl)-acetamide], the inhibition in vivo at 98 µmol/kg [1] was 91%, the “Affinity for the α2-subunit of the GABAA receptor, % inhibition” value (“Affinity for the α2-subunit … % inhibition” for short) (α2-GABAA receptor; 10^−5M) was 88.2% and the “Affinity for the α2-subunit … % inhibition” value (α2-GABAA receptor; 10^−7M) was 12.5%. The “affinity for the α2-subunit of GABAA receptor (in words)” value (α2-GABAA receptor; compared with zolpidem where stated) was “higher affinity than prior art compound zolpidem”, the “Affinity for the α1-subunit of the GABAA receptor, % inhibition” value (shortened to “Affinity for the α1-subunit … % inhibition”) (α1-GABAA receptor; 10^−5M) was 99.0% and the “Affinity for the α1-subunit … % inhibition” value (α1-GABAA receptor; 10^−7M) was 49.9%.

With `CCCN(CCC)C(=O)Cn1cc(-c2ccccc2)c(=O)c2ccccc21` [Example 47, 2-(4-Oxo-3-phenyl-4H-quinolin-1-yl)-N,N-dipropyl-acetamide] the inhibition in vivo at 98 µmol/kg [1] was 74.7%, the “Affinity for the α2-subunit … % inhibition” value (α2-GABAA receptor; 10^−5M) was 68.9% and the “Affinity for the α2-subunit … % inhibition” value (α2-GABAA receptor; 10^−7M) was 0.0%. For the same molecule, the “Affinity for the α1-subunit … % inhibition” value (α1-GABAA receptor; 10^−5M) was 88.1% and the “Affinity for the α1-subunit … % inhibition” value (α1-GABAA receptor; 10^−7M) was 2.3%.

With `COc1ccc(NC(=O)Cn2cc(-c3ccc(OC)cc3)c(=O)c3ccc(C)cc32)cc1` [Example 80, N-(4-Methoxy-phenyl)-2-[3-(4-methoxy-phenyl)-7-methyl-4-oxo-4H-quinolin-1-yl]acetamide] the inhibition in vivo at 98 µmol/kg [1] was 71.9%, the “Affinity for the α2-subunit … % inhibition” value (α2-GABAA receptor; 10^−5M) was 65.1% and the “Affinity for the α2-subunit … % inhibition” value (α2-GABAA receptor; 10^−7M) was 15.7%. The “Affinity for the α1-subunit … % inhibition” value (α1-GABAA receptor; 10^−5M) was 78.5% and the “Affinity for the α1-subunit … % inhibition” value (α1-GABAA receptor; 10^−7M) was 28.5%.

In the case of `C=CCN(CC=C)C(=O)Cn1cc(-c2ccc(OC)cc2)c(=O)c2ccc(C)cc21` [Example 97, N,N-Diallyl-2-[3-(4-methoxy-phenyl)-7-methyl-4-oxo-4H-quinolin-1-yl]-acetamide], the inhibition in vivo at 98 µmol/kg [1] was 76.8%, the “Affinity for the α2-subunit … % inhibition” value (α2-GABAA receptor; 10^−5M) was 62.0% and the “Affinity for the α2-subunit … % inhibition” value (α2-GABAA receptor; 10^−7M) was 0.0%. For the same molecule, the “Affinity for the α1-subunit … % inhibition” value (α1-GABAA receptor; 10^−5M) was 90.7% and the “Affinity for the α1-subunit … % inhibition” value (α1-GABAA receptor; 10^−7M) was 4.9%.

`Cc1ccc(-c2nc3ccc(C)cn3c2CC(=O)N(C)C)cc1` [zolpidem, reference compound] was tested, and the inhibition in vivo at 98 µmol/kg [1] was 91.7%, the “Affinity for the α2-subunit … % inhibition” value (α2-GABAA receptor; 10^−5M) was 74.1% and the “Affinity for the α2-subunit … % inhibition” value (α2-GABAA receptor; 10^−7M) was 19.9%. The “Affinity for the α1-subunit … % inhibition” value (α1-GABAA receptor; 10^−5M) was 99.8% and the “Affinity for the α1-subunit … % inhibition” value (α1-GABAA receptor; 10^−7M) was 51.9%.
